Assay results from EP4559916A1, “PHARMACEUTICALLY ACCEPTABLE SALT AND POLYMORPH OF SUBSTITUTED PYRAZOLO[1,5-A]PYRIMIDIN-7-AMINE DERIVATIVE AND USE THEREOF” (Shanghai Haiyan Pharmaceutical Technology Co., Ltd., priority 2022, dated 2024).

Legend:
[1] = Solubility in 0.1 mol/L hydrochloric acid and pH 6.8 phosphate buffer, 24 h at 37°C; format: physicochemical; conditions: for solubility: 1440 min
[2] = Chemical stability: related substances after 80°C for one week with water added; format: physicochemical; conditions: for Phosphate content (80°C, 7 d): 25 mg sample with 5 mg water, oven at 80°C
[3] = Dynamic vapor sorption (DVS) measurement; format: physicochemical; conditions: for weight gain due to moisture absorption: DVS, 80% RH, 25°C; for hygroscopicity: from DVS weight gain at 80% RH
Description: Dynamic vapor sorption (DVS) curve: a dynamic vapor sorption curve was collected on a DVS Intrinsic of SMS (Surface Measurement Systems). The relative humidity at 25°C was calibrated using the deliquescent points of LiCl, Mg(NO3)2 and KCl.
(§1) Chinese Pharmacopoeia 2020, volume IV, 9103 Guidelines for Hygroscopicity Test of Drugs specifies the definition of hygroscopicity characteristics and hygroscopicity weight gain: (1) deliquescence: absorbing sufficient water to form a liquid; (2) extremely hygroscopicity: hygroscopicity weight gain of not less than 15%; (3) hygroscopicity: hygroscopicity weight gain of less than 15% but not less than 2%; (4) slightly hygroscopicity: hygroscopicity weight gain of less than 2% but not less than 0.2%; (5) no or almost no hygroscopicity: moisture gain is less than 0.2%.

[4] = Rough solubility in pH 4.5 and pH 6.8 buffers at room temperature; format: physicochemical
[5] = Crystal form conversion: suspension shaking in ethanol; format: physicochemical; conditions: ethanol (1 mL), sealed, shaken at 50°C and 150 r/min for seven days
Description: (§2) The changes in crystal form were detected at day 7, day 20, day 30, and day 60, respectively. […] (2) About 40 mg of phosphate crystal form I (prepared with reference to Example 1 of the present application) was weighed into a glass vial , and ethanol (1 mL) was added thereto, the glass vial was sealed and shaken at 50°C and 150 r/min for seven days, then centrifuged to collect the solid and the solvent was evaporated. […] Samples were taken and the related substances were determined. […]

[6] = Stability test: changes in crystal form (XRPD) under high temperature and accelerated conditions; format: physicochemical; conditions: for changes in crystal form: 60°C (high temperature) and 40°C to 75% RH (accelerated), day 7, day 20, day 30, day 60
Description: X-ray powder diffraction (XRPD): in the present disclosure, the above crystalline or amorphous powder X-ray diffraction pattern was obtained by a known method in the art using an ARL Equinox3000 X-ray powder diffraction analyzer.
as §2

[7] = Hygroscopicity test according to Chinese Pharmacopoeia 2020, volume IV, 9103; format: physicochemical
Source text: as §1

[8] = physchem; conditions: water
[9] = In vivo pharmacokinetic test in mice; conditions: male ICR mice, gavage administration 10 mg/kg
Description: Test animals: healthy adult male ICR mice (weighing 30-40 g, 12 mice, intravenous injection group mice drinking water and diet ad libitum, gavage group fasting overnight, drinking water and diet ad libitum 4 h after administration), provided by Beijing Vital River Laboratory Animal Co. LTD;
Administration method and dosage: ICR mice were administered via caudal vein administration (2 mg/kg, 5% DMSO, pH 4.5 20% Captisol) and gavage administration (10 mg/kg, 5% DMSO, pH 4.5 20% Captisol).
Blood sampling: Animals meeting the experimental requirements were selected prior to administrating, weighed and labeled. Mice were bound prior to blood sampling, and each administrated mice was bled at a predetermined time point (caudal vein administration: blood samples were collected at 0.083 h, 0.25 h, 0.5 h, 1 h, 2 h, 4 h, 6 h, 7.5 h and 24 h after administration, totally 9 time points; gavage administration: blood samples were collected at 0.083 h, 0.25 h, 0.5 h, 1 h, 2 h, 4 h, 6 h, 7.5 h and 24 h after administration, totally 9 time points), and about 100 µL blood samples were collected through the orbit. The blood was transferred to a 1.5 mL test tube pre-added with K2EDTA, centrifuged for 4 min (8000 rpm, 4°C), and the plasma was removed. The whole process was completed within 15 min after blood collection. All samples were stored in a refrigerator at -20°C until sample analysis. LC/MS/MS method was used to determine drug concentrations.

[10] = test system: MV4 -11 acute myeloid leukemia; assay: In vivo pharmacodynamic experiment, MV4-11 subcutaneous xenograft; design: species or system BALB/c nude mice; conditions: Oral, Once daily
Description: In vivo pharmacodynamic experiments were performed on BALB/c nude mice subcutaneously implanted with MV4 -11 acute myeloid leukemia […] xenograft (CDX) based on human tumor cell lines.
Protocol: BALB/c nude mice, female, 6-10 weeks old, weighing approximately 20-23 grams, were maintained in a special pathogen-free environment and in individual ventilated cages (5 mice per cage, 2 cages of 10). All cages, bedding and water were disinfected prior to use. All animals had free access to standard certified commercial laboratory diets. […] Each mouse was implanted with tumor cells subcutaneously in the right flank (1×10^7 0.1 ml+Matrigel 0.1 ml) for tumor growth. When the average tumor volume reached about 165 cubic mm, randomization was performed according to body weight and tumor volume, and administration was started. The test compound was administered orally by gavage daily. Antitumor efficacy was determined by dividing the average tumor increase volume of animals treated with the compound by the average tumor increase volume of untreated animals.
Tumor volume was measured twice weekly with a two-dimensional caliper, and volumes were measured in cubic millimeters. Tumor volume TV=0.5a×b^2. Wherein, a is the long diameter of the tumor and b is the short diameter of the tumor.
T/C(%) is the percentage of the relative tumor volume (RTV) between the treatment group and the control group at a certain time point. The calculation Formula is as follows: T/C% = TRTV/CRTV×100% (TRTV: mean RTV of treatment group; CRTV: mean RTV of vehicle control group; RTV=Vt/V0, V0 is tumor volume of the animal at grouping, Vt is tumor volume of the animal after treatment). mpk is mg/kg body weight.
Body weight change (%) of tumor-bearing animals was calculated as follows: (body weight at measurement - body weight at grouping)/body weight at grouping × 100.

[11] = molecular target: T1, CDK9/CycT (Homo sapiens, UniProt P50750); assay: LANCE Ultra kinase activity inhibition test, CDK9; format: biochemical; conditions: ATP 10 µM
T1 construct: purchased Carna Bioscience 04-110
T1 sequence (P50750 whole entry): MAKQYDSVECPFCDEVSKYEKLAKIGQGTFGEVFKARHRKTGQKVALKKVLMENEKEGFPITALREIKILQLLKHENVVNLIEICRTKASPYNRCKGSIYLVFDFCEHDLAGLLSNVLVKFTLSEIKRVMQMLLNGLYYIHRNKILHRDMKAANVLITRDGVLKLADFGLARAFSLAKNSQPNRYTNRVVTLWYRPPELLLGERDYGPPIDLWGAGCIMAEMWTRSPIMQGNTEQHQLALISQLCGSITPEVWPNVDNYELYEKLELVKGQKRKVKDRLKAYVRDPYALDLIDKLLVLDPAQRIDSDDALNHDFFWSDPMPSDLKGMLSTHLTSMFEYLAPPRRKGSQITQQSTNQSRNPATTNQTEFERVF
T1 sequence (O60563 whole entry partner): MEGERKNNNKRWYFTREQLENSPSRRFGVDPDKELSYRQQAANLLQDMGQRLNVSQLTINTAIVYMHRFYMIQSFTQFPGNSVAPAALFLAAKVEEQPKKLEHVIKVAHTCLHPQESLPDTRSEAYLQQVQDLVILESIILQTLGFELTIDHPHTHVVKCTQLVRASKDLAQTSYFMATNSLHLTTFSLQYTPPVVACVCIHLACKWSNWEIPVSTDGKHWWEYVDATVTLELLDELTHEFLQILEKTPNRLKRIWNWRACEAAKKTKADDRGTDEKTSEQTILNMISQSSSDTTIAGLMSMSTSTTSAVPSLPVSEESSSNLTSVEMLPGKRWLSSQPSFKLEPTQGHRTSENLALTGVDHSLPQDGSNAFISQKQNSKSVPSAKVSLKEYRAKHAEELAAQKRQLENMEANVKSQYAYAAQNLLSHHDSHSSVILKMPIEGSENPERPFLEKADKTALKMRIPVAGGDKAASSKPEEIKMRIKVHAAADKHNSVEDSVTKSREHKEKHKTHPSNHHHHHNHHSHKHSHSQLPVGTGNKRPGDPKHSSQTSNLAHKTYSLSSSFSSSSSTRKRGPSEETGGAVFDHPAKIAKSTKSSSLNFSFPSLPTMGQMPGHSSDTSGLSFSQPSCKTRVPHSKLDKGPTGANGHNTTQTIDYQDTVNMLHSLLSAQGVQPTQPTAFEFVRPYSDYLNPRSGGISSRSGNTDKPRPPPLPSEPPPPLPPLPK
Source text: In the following LANCE Ultra test method, kinase reagents were purchased from Carna Bioscience, reaction substrates and detection reagents were purchased from Perkin Elmer, and the remaining reagents were purchased from Thermo scientific.
The LANCE Ultra method was used to determine the inhibitory effect of the test substance on the kinase activity of CDK1/CycB (Carna bioscience, #04-102), CDK2/ CycA (Carna bioscience, #04-103), CDK9/CycT (Carna bioscience, #04-110).
Each kinase in the test included three test groups: background group (Blank), non-inhibition group (PC) and compound test group (Test). […]
After the addition of the test solution, it was placed on a shaker and incubated at room temperature for 1 h in the dark. […] The 665 nm/615 nm values (hereinafter referred to as the Ratio value) were calculated for all groups, and the inhibition rate was calculated based on the Ratio value of each group; 2. […] XLFIT 5.0 software (IDBS, UK) was used for fitting, with logarithmic values of compound concentrations as the X axis and inhibition rates as the Y axis, and IC50 values of compounds were calculated using a four-parameter model.

[12] = listed as phosphate crystal form I of the compound of Formula (I)
[13] = listed as phosphate crystal form II of the compound of Formula (I)

## C[C@H](c1cc(N[C@H]2CC[C@H](N)C2)n2nccc2n1)C1CCC1 [Phosphate crystal form I]
[1]; 0.1n hcl
  solubility at 24 h: 22.5 mg/mL
[1]; phosphate buffer, pH 6.8, pH 6.8 phosphate buffer
  solubility at 24 h: 22.5 mg/mL
[2]
  Phosphate content (0 d): 99.64
  Phosphate content (80°C, 7 d): 98.66
[3]; [12]
  weight gain due to moisture absorption: 9%
  hygroscopicity: hygroscopicity (hygroscopicity weight gain of less than 15% but not less than 2%)
[4]; acetate buffer, pH 4.5, rough solubility, pH 4.5 buffer (acetic acid-sodium acetate system), read-out: Solubility in pH 4.5 buffer
  solubility: ≤ 33 mg/mL
[4]; phosphate buffer, pH 6.8, rough solubility, pH 6.8 buffer (sodium dihydrogen phosphate-sodium hydroxide system), read-out: Solubility in pH 6.8 buffer
  solubility: ≤ 24.5 mg/mL
[5]
  crystal form of the obtained solid (XRPD): phosphate crystal form II
[6]
  changes in crystal form: no obvious changes
[6]; high temperature conditions, 7 days and 30 days, Figure 16
  change of XRPD pattern: no obvious change

## C[C@H](c1cc(N[C@H]2CC[C@H](N)C2)n2nccc2n1)C1CCC1 [L-tartrate]
[7]
  hygroscopicity: slight hygroscopicity

## C[C@H](c1cc(N[C@H]2CC[C@H](N)C2)n2nccc2n1)C1CCC1 [phosphate]
[8]
  solubility: ≤ 26.6 mg/mL

## C[C@H](c1cc(N[C@H]2CC[C@H](N)C2)n2nccc2n1)C1CCC1 [Phosphate crystal form II]
[1]; 0.1N HCl
  solubility: 39.14 mg/mL
[1]; pH 6.8 phosphate buffer
  solubility: 33.63 mg/mL
[2]
  Phosphate content (0 d): 99.64
  Phosphate content (80°C, 7 d): 98.73
[3]
  weight gain due to moisture absorption: 0.45%
  hygroscopicity: slight hygroscopicity
[3]; [13]
  weight gain due to moisture absorption: 0.45%
  hygroscopicity: slight hygroscopicity
[6]
  changes in crystal form: no obvious changes

## CCC(CC)c1cc(N[C@H]2CC[C@H](N)C2)n2nccc2n1 [Compound D, reference compound]
[9]
  Area under the curve for oral administration AUC0-t: 1191 ng·h/mL
  Maximum oral plasma concentration Cmax: 433 ng/mL
[10]; 12.5 mpk
  Mean tumor weight: 0.35 g
  T/C: 45.04%
[10]; 25 mpk
  Mean tumor weight: 0.02 g
  T/C: 2.04%

## C[C@H](c1cc(N[C@H]2CC[C@H](N)C2)n2nccc2n1)C1CCC1 [L-tartrate crystal form I]
[4]; rough solubility, pH 4.5 buffer (acetic acid-sodium acetate system)
  Solubility in pH 4.5 buffer: ≤43.3 mg/mL
[4]; rough solubility, pH 6.8 buffer (sodium dihydrogen phosphate-sodium hydroxide system)
  Solubility in pH 6.8 buffer: ≤21.8 mg/mL
[6]
  changes in crystal form: no obvious changes
[6]; accelerated conditions (40°C-75% RH), 7 days and 2 months (60 days), FIG. 15
  change of XRPD pattern: no obvious change
[6]; high temperature conditions (60°C), 7 days and 2 months (60 days)
  change of XRPD pattern: no obvious change

## C[C@H](c1cc(N[C@H]2CC[C@H](N)C2)n2nccc2n1)C1CCC1 [The compound of Formula (I), (1S,3S)-N1-(5-((S)-1-cyclobutylethyl)pyrazolo[1,5-a]pyrimidin-7-yl)cyclopentan-1,3-diamine]
[9]; mouse, plasma, po, read-out: Area under the curve for oral administration AUC0-t
  AUC(0-t): 2960 ng·h/mL
[9]; mouse, plasma, po, read-out: Maximum oral plasma concentration Cmax
  Cmax: 379 ng/mL
[11]
  IC50: 0.012 µM
[10]; 12.5 mpk
  Mean tumor weight: 0.17 g
  T/C: 21.50%
[10]; 25 mpk
  Mean tumor weight: 0.01 g
  T/C: 1.40%
